Results taken from patent publication US20190125753A1, “COMPOUNDS AND METHODS FOR INCREASING HEMATOPOIESIS” (University of Southern California, priority 2016, published 2019).

Key:
[1] = system: bone marrow HSPC; experiment: Competitive repopulation assay with bone marrow of 7Gy irradiated mice; type: in vivo, mouse
Description: In the hematopoietic system, the LTR-HSC or pluripotent HSC sits atop the hematopoietic hierarchy. LTR-HSCs subsequently generate “Short Term Repopulating” hematopoietic stem cells (STR-HSC), and then progenitor cells. After radiation induced myeloid-ablation, there is a significant loss of progenitor cells. To investigate the target cell population in irradiated mice, YH250 or DMSO were administrated to 7Gy irradiated animals 24 hours post radiation. Then, 7 or 14 days post radiation (6 or 13 days after YH250 or DMSO administration), bone marrow cells were recovered from animals and competitive repopulation assay was performed to study YH250 function in stimulating HSPC proliferation. 1×10^6 testing bone marrow cells were mixed with 2×10^5 competitor cells (from non-irradiated mice) and injected into lethally irradiated mice (9Gy) (FIG. 18A). HSPC cell number will be reflected in the short-term (1-2 months after BMT) or long-term (≥4 month of BMT) engraftment. […] The same observation also applies to cells isolated 14th day post 7Gy radiation.
The expanded LTR-HSC at day 6 post YH250 stimulation then starts to develop and give more STR-HSC by day 14 post radiation. There is no further LTR-HSC expanding from day 6 to day 13 post YH250. Thus, one dose of YH250 administrated 24 hours post 7Gy radiation stimulated symmetric non-differentiation LTR-HSC expansion and followed with STR-HSC expansion.

[2] = system: bone marrow HSPC; experiment: Competitive repopulation assay after 8.5Gy radiation (HSPC exhaustion); type: in vivo
[3] = system: LSK150+41−48− cells (LTR-HSC); experiment: RNA sequencing of long-term repopulating HSC from treated mice; type: in vivo, mouse; settings: 2 mg/kg vs DMSO, 16 hours
Description: (§1) DMSO or YH250 (2 mg/kg) were administrated to female C57/Black mice.

[4] = system: bone marrow HSPC; experiment: HSPC proliferation in 7Gy irradiated mice (BrdU, cell cycle, FACS); type: in vivo, mouse
Description: YH250 was also tested for stimulation of HSPC (hematopoietic stem/progenitor population) proliferation in irradiated animals. In this study, mice received 7Gy whole body radiation, DMSO or YH250 (s.c., 2 mg/Kg) were administrated 24 hours post radiation, followed with BrdU injection. FIG. 17A depicts the experimental procedure. […] Then, YH250 was administrated to 7Gy irradiated animals and 4 days later, bone marrow cells were isolated for FACS analysis for HSC markers (FIG. 17E).

[5] = system: LSK150+41+48+ cells; experiment: RNA sequencing of progenitor population from treated mice; type: in vivo, mouse; settings: 2 mg/kg vs DMSO, 16 hours
Description: as §1

[6] = system: Axin2 and survivin (Birc5) gene expression; experiment: qPCR gene expression in bone marrow Sca-1posit cells of treated mice; type: in vivo, mouse; settings: 2 mg/kg overnight, Sca-1+ population
Description: Axin2 is a classical Wnt/catenin target genes and plays important regulatory roles in Wnt signaling. The inhibitor of apoptosis (IAP) family member survivin (Birc5) is another Wnt/catenin target gene. […] To study YH250 effects in bone marrow stem cell population gene expression, female C57/Black mice were treated with DMSO or YH250 (2 mg/kg) overnight and bone marrow Sca-1posit cells were isolated. Then, total RNA were extracted for cDNA synthesis and qPCR assay (FIG. 5A). As shown in FIGS. 5B-5C, both Axin2 and survivin gene expression were up regulated by YH250 in the Sca-1^+ population of the treated animals.

[7] = system: cord blood cells; experiment: Cord blood cell repopulation in NSG mice; type: in vivo, human; settings: day 57 post BMT
Excerpt: FIG. 11A depicts the experimental procedure.

[8] = system: LTR-HSC (LSKCD34−CD135−CD150+ cells); experiment: BrdU incorporation in bone marrow HSPC in vivo; set-up: species or system mouse; settings: 24 or 48 hrs post administration
Excerpt: P300/-catenin antagonists stimulate HSPC proliferation both in vitro and in vivo. In this study, 24 or 48 hrs post either DMSO or YH250 administration, BrdU was given to animals and bone marrow cells were isolated and analyzed to determine HSPC proliferation (FIG. 15A). Bone marrow cells were stained with antibodies to lineage markers (CD3, CD4, CD8, B220, CD16, Gr-1, Mac-1), antibodies to Sca-1, c-kit, CD135, CD34, CD150 and BrdU.

[9] = system: mouse bone marrow cells; experiment: Colony-forming cell (CFC) assay after 4 h in vitro treatment; type: cell-based
Description: Brief (less than 24 hours) treatment of HSC with YH250 or DMSO was conducted before the CFC or CFU-S12 assay. Mouse bone marrow cells were treated with DMSO (solvent control) or YH250 for 4 hours in serum free HSC expansion medium before the cells were recovered for a colony forming assay. 7-8 Days after cell plating in methylcellulose medium (Stemcell Technologies, Methocult GF M3434, Cat#3434), colonies were scored, and the cells from each plate were recovered and counted.
In fact, they also show similar biological functions with respect to HSPC.

[10] = bone marrow cells recovered day 7 post radiation
[11] = bone marrow cells recovered day 14 post radiation
[12] = 4 hours incubation then CFC assay

COc1cccc(CNC(=O)N2C3CN(Cc4cc(Cl)cc(Cl)c4N(C)C)C(=O)[C@H](Cc4ccc(O)cc4)N3C(=O)CN2C)c1OC (some centres unmarked) [YH250]
long-term engraftment [1, 10]: 4.1±1.6
short term engraftment [1, 10]: 5.8±2.4
long-term engraftment [1, 11]: 3.4±0.57
short term engraftment [1, 11]: 12.3±2.0
engraftment vs DMSO treated animals, short term and long term ([1]; cells recovered 7th day post 7Gy radiation, one dose 24 hours post radiation): better engraftment
engraftment level vs DMSO treated animals ([2]; bone marrow from 8.5Gy irradiated animals): similar
HSPC exhaustion ([2]; one dose 24 hours post lethal dose radiation): does not exhaust HSPC
Fold-Change A430005L14Rik [3]: 2.07 fold
Fold-Change Car1 [3]: 46.29 fold
Fold-Change Casp6 [3]: 2.56 fold
Fold-Change Cd52 [3]: 3.09 fold
Fold-Change Cd53 [3]: 2.79 fold
Fold-Change Cd69 [3]: 2.44 fold
Fold-Change Cd74 [3]: 2.30 fold
Fold-Change Cd79a [3]: 5.49 fold
Fold-Change Cdc123 [3]: 2.13 fold
Fold-Change Dtx3 [3]: −2.12 fold
Fold-Change Gm21897 [3]: −2.18 fold
Fold-Change Gm26377 (miRNA) [3]: −58.02 fold
Fold-Change Ighm [3]: 6.14 fold
Fold-Change Ighv11-2 [3]: 8.18 fold
Fold-Change Igj [3]: 3.36 fold
Fold-Change Igkc [3]: 3.93 fold
Fold-Change Igkv14-126 [3]: 8.00 fold
Fold-Change Igkv19-93 [3]: 21.16 fold
Fold-Change Iglc2 [3]: 4.58 fold
Fold-Change Il2rg [3]: 2.03 fold
Fold-Change Kcnq1ot1 (antisense) [3]: −2.37 fold
Fold-Change Ldlr [3]: −3.57 fold
Fold-Change Ly6c2 [3]: 7.17 fold
Fold-Change Mid1 [3]: −3.98 fold
Fold-Change Mrpl30 [3]: 2.07 fold
Fold-Change Ndufaf7 [3]: 3.45 fold
Fold-Change Pias1 [3]: 2.02 fold
Fold-Change Psmf1 [3]: 2.48 fold
Fold-Change RP23-99K18.3 (lincRNA) [3]: −2.28 fold
Fold-Change Tgtp1 [3]: 2.85 fold
Fold-Change Tmed4 [3]: 2.06 fold
bone marrow cells in S phase ([4]; 7Gy irradiation): more bone marrow cells in S phase
HSPC (L−CD48−CD150+ cells) ([4]; 7Gy, 4 days after administration): increased HSPC
BrdU positive cells in lineage negative (Lin) population ([4]; 7Gy, s.c., 2 mg/Kg 24 hours post radiation): more BrdUpost cells
Fold-Change Car1 [5]: −12.1 fold
Fold-Change Gm26377 (miRNA) [5]: −3.19 fold
Fold-Change Ighm [5]: 2.36 fold
Fold-Change Ighv11-2 [5]: 4.42 fold
Fold-Change Igkv19-93 [5]: 3.12 fold
Fold-Change Mid1 [5]: −2.8 fold
Axin2 gene expression [6]: up regulated
survivin gene expression [6]: up regulated
human CD34+ cells in bone marrow vs DMSO treated cells ([7]; in vitro treated cells): more human CD34+ cells in bone marrow
donor cell engraftment in blood ([7]; pre-incubation in vitro 24 hours before BMT): best engraftment in blood
BrdU positive cells in LTR-HSC [8]: more BrdU positive cells
CELL#/plate [9, 12]: 9.5 × 10^5
CFC#/plate [9, 12]: 29
CFC colony number vs DMSO ([9]; 4 hours treatment, serum free medium, scored 7-8 days after plating): not significantly different
cell number in each plate vs DMSO ([9]; 4 hours treatment, cells recovered from plate): increased cell number in each plate
